Laboratory results published in the supplement of paper PMC8149375.

Columns and labels:
Settings in all cases: treatment: drug alone; 5 days
769-P [1] = test: GI50, drug alone; higher = less potent
Protocol: (§1)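 Primary HTS: 8 RCC cell lines treated with 8 doses (up to 10 uM) of each library drug alone for 5 days; viability read by CellTiter-Glo and normalised to DMSO. GI50 was fitted with XLfit (4-parameter), AUC is the area under the dose-response curve, and minimum viability is the lowest fraction of DMSO viability across doses.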

786-O [2] = test: GI50, drug alone; higher = less potent
Protocol: as §1

A498 [3] = test: GI50, drug alone; higher = less potent
Protocol: as §1

ACHN [4] = test: GI50, drug alone; higher = less potent
Protocol: as §1

CAKI-1 [5] = test: GI50, drug alone; higher = less potent
Protocol: as §1

SN12C [6] = test: GI50, drug alone; higher = less potent
Protocol: as §1

TK-10 [7] = test: GI50, drug alone; higher = less potent
Protocol: as §1

UO-31 [8] = test: GI50, drug alone; higher = less potent
Protocol: as §1

769-P [9] = test: minimum viability across doses, drug alone, relative to DMSO (fraction); higher = less growth inhibition
Protocol: as §1

786-O [10] = test: as above
Protocol: as §1

A498 [11] = test: as above
Protocol: as §1

ACHN [12] = test: as above
Protocol: as §1

CAKI-1 [13] = test: as above
Protocol: as §1

SN12C [14] = test: as above
Protocol: as §1

TK-10 [15] = test: as above
Protocol: as §1

UO-31 [16] = test: as above
Protocol: as §1

769-P [17] = test: AUC of dose-response viability curve, drug alone (arbitrary (AUC of normalised viability)); higher = less growth inhibition
Protocol: as §1

786-O [18] = test: as above
Protocol: as §1

A498 [19] = test: as above
Protocol: as §1

ACHN [20] = test: as above
Protocol: as §1

CAKI-1 [21] = test: as above
Protocol: as §1

SN12C [22] = test: as above
Protocol: as §1

TK-10 [23] = test: as above
Protocol: as §1

UO-31 [24] = test: as above
Protocol: as §1

| GI50, drug alone (786-O [2]) [µM] | GI50, drug alone (ACHN [4]) [µM] | SMILES | GI50, drug alone (769-P [1]) [µM] | GI50, drug alone (A498 [3]) [µM] | GI50, drug alone (CAKI-1 [5]) [µM] | GI50, drug alone (SN12C [6]) [µM] | GI50, drug alone (TK-10 [7]) [µM] | GI50, drug alone (UO-31 [8]) [µM] | minimum viability across doses (769-P [9]) | minimum viability across doses (786-O [10]) | minimum viability across doses (A498 [11]) | minimum viability across doses (ACHN [12]) | minimum viability across doses (CAKI-1 [13]) | minimum viability across doses (SN12C [14]) | minimum viability across doses (TK-10 [15]) | minimum viability across doses (UO-31 [16]) | AUC of dose-response viability curve (769-P [17]) | AUC of dose-response viability curve (786-O [18]) | AUC of dose-response viability curve (A498 [19]) | AUC of dose-response viability curve (ACHN [20]) | AUC of dose-response viability curve (CAKI-1 [21]) | AUC of dose-response viability curve (SN12C [22]) | AUC of dose-response viability curve (TK-10 [23]) | AUC of dose-response viability curve (UO-31 [24]) |
| --- | --- | --- | --- | --- | --- | --- | --- | --- | --- | --- | --- | --- | --- | --- | --- | --- | --- | --- | --- | --- | --- | --- | --- | --- |
| > 10 | > 10 | COc1cc2c(N3CCN(C(=O)Nc4ccc(OC(C)C)cc4)CC3)ncnc2cc1OCCCN1CCCCC1 [Tandutinib (MLN518)] | > 10 | > 10 | > 10 | > 10 | > 10 | > 10 | 0.818 | 0.609 | 0.96 | 0.767 | 0.729 | 0.74 | 0.818 | 1.09 | 3.32 | 3.61 | 3.63 | 3.5 | 3.41 | 3.14 | 3.23 | 4.36 |
| 0.17 | 9.84 | CC(=O)Nc1ccc(NC(=S)NC(=O)c2ccc(C(C)(C)C)cc2)cc1 [Tenovin-1] | 0.818 | 0.978 | > 10 | > 10 | 5.19 | 0.264 | 0.0841 | 0.00113 | 0.0355 | 0.515 | 0.536 | 0.762 | 0.412 | 0.00581 | 2.48 | 1.52 | 2.77 | 2.75 | 2.96 | 3.15 | 2.63 | 2.6 |
| 0.288 | > 10 | O=C1CCC(N2C(=O)c3ccccc3C2=O)C(=O)N1 (stereo unspecified) [Thalidomide] | > 10 | > 10 | > 10 | > 10 | > 10 | > 10 | 0.949 | 0.0165 | 1.05 | 0.802 | 0.932 | 0.88 | 0.824 | 1.21 | 3.56 | 2 | 4.19 | 3.18 | 3.56 | 3.37 | 3.12 | 4.89 |
| 0.0203 | > 10 | O=c1sn(-c2cccc3ccccc23)c(=O)n1Cc1ccccc1 [Tideglusib] | > 10 | > 10 | > 10 | > 10 | > 10 | > 10 | 0.948 | 0.485 | 0.979 | 0.822 | 0.941 | 0.871 | 0.736 | 1.14 | 3.48 | 2.12 | 3.82 | 3.19 | 3.54 | 3.28 | 2.95 | 4.53 |
| > 10 | 6.95 | COc1cc2nccc(Oc3ccc(NC(=O)Nc4cc(C)on4)c(Cl)c3)c2cc1OC [Tivozanib (AV-951)] | > 10 | > 10 | 2.02 | 9.39 | > 10 | 0.301 | 0.849 | 0.904 | 1.12 | 0.352 | 0.0726 | 0.417 | 0.641 | 0.00837 | 3.47 | 3.89 | 4.88 | 3.21 | 2.12 | 3.26 | 3.14 | 2.98 |

The next lines start with the compound.

| SMILES | GI50, drug alone (786-O [2]) [µM] | GI50, drug alone (ACHN [4]) [µM] | GI50, drug alone (769-P [1]) [µM] | GI50, drug alone (A498 [3]) [µM] | GI50, drug alone (CAKI-1 [5]) [µM] | GI50, drug alone (SN12C [6]) [µM] | GI50, drug alone (TK-10 [7]) [µM] | GI50, drug alone (UO-31 [8]) [µM] | minimum viability across doses (769-P [9]) | minimum viability across doses (786-O [10]) | minimum viability across doses (A498 [11]) | minimum viability across doses (ACHN [12]) | minimum viability across doses (CAKI-1 [13]) | minimum viability across doses (SN12C [14]) | minimum viability across doses (TK-10 [15]) | minimum viability across doses (UO-31 [16]) | AUC of dose-response viability curve (769-P [17]) | AUC of dose-response viability curve (786-O [18]) | AUC of dose-response viability curve (A498 [19]) | AUC of dose-response viability curve (ACHN [20]) | AUC of dose-response viability curve (CAKI-1 [21]) | AUC of dose-response viability curve (SN12C [22]) | AUC of dose-response viability curve (TK-10 [23]) | AUC of dose-response viability curve (UO-31 [24]) |
| --- | --- | --- | --- | --- | --- | --- | --- | --- | --- | --- | --- | --- | --- | --- | --- | --- | --- | --- | --- | --- | --- | --- | --- | --- |
| Nc1cccc(-c2cc3c(Oc4cccc(O)c4)ncnc3[nH]2)c1 [TWS119] | 5.04 | 2.8 | 3.63 | > 10 | 4.56 | 5.5 | 2.65 | 8.62 | 0.0987 | 0.154 | 0.572 | 0.153 | 0.113 | 0.295 | 0.0991 | 0.0946 | 2.93 | 3.03 | 3.93 | 2.77 | 3.09 | 2.86 | 2.75 | 4.2 |
| CNC(=O)c1cc(COc2nnc(Nc3ccc(Cl)cc3)c3ccoc23)ccn1 [Telatinib (BAY 57-9352)] | 3.22 | 9.99 | 9.79 | > 10 | 6.76 | > 10 | 6.45 | > 10 | 0.484 | 0.0383 | 0.951 | 0.497 | 0.267 | 0.79 | 0.319 | 0.749 | 3.4 | 2.61 | 4.32 | 3.42 | 3.3 | 3.27 | 2.96 | 4.45 |
| O=C(NCc1ccccc1)c1csc(Nc2ccncn2)n1 [Thiazovivin] | > 10 | 7.22 | > 10 | > 10 | > 10 | > 10 | > 10 | 4.49 | 0.717 | 0.526 | 0.891 | 0.369 | 0.609 | 0.804 | 0.69 | 0.279 | 3.01 | 2.69 | 3.9 | 3.15 | 3.17 | 3.58 | 3.36 | 3.55 |
| COc1ccc2cc(-c3[nH]c(-c4ccc(S(C)=O)cc4)nc3-c3ccncc3)ccc2c1 (stereo unspecified) [Tie2 kinase inhibitor] | > 10 | > 10 | > 10 | > 10 | > 10 | > 10 | > 10 | > 10 | 0.951 | 0.52 | 1.08 | 0.762 | 0.864 | 0.755 | 0.799 | 1.2 | 3.4 | 3.15 | 4.67 | 3.08 | 3.54 | 3.4 | 3.35 | 5.91 |
